Assay [1] deals with GDP-bound HRAS wild-type protein (Homo sapiens, UniProt P01112). In words: Binding to HRAS by surface plasmon resonance (SPR), Single Cycle Kinetics. The conditions noted are these: for HRAS/KRAS (ratio of KD value with respect to GDP-bound HRAS wild-type protein to KD value with respect to KRAS): SPR KD ratio HRAS/KRAS, class symbols; for HRAS/KRAS (ratio of KD value for HRAS to KD value for KRAS): SPR, GDP-bound HRAS wild-type protein vs GDP-bound KRAS wild-type protein.

In assay [2] the target is GDP-bound NRAS wild-type protein (Homo sapiens, UniProt P01111). In words: Binding to NRAS by surface plasmon resonance (SPR), Single Cycle Kinetics. The conditions noted are these: for NRAS/KRAS (ratio of KD value with respect to GDP-bound NRAS wild-type protein to KD value with respect to KRAS): SPR KD ratio NRAS/KRAS, class symbols; for NRAS/KRAS (ratio of KD value for NRAS to KD value for KRAS): SPR, GDP-bound NRAS wild-type protein vs GDP-bound KRAS wild-type protein.
Chain of GDP-bound NRAS wild-type protein (P01111 whole entry): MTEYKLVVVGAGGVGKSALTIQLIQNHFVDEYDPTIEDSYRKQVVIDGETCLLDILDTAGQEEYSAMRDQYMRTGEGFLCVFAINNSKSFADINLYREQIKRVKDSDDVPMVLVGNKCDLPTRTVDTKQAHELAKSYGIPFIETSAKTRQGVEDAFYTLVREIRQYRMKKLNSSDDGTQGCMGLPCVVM

Where a SMILES comes first, the peptide text is derived from it. Bridges are numbered along the chain shown (N, C = ends). [ ]: non-standard residue; d: D form. The star is where a group is joined. hPhe(3-Cl-4-CF3) = N[C@@H](CCc1ccc(C(F)(F)F)c(Cl)c1)C(=O)O; NEtPhe(4-Me) = CCN[C@@H](Cc1ccc(C)cc1)C(=O)O; NMeGly(cPent) = CN[C@H](C(=O)O)C1CCCC1; Hyp = O=C(O)[C@@H]1C[C@@H](O)CN1; NMeD = CN[C@@H](CC(=O)O)C(=O)O; NMeL = CN[C@@H](CC(C)C)C(=O)O; Morpholide = C1CN(*)CCO1; NMeA = CN[C@@H](C)C(=O)O; Ac5c = NC1(C(=O)O)CCCC1; Aze = O=C(O)[C@@H]1CCN1; X51 = C1CCC(*)OC1; Sar = CNCC(=O)O

Chain of GDP-bound HRAS wild-type protein (P01112 whole entry): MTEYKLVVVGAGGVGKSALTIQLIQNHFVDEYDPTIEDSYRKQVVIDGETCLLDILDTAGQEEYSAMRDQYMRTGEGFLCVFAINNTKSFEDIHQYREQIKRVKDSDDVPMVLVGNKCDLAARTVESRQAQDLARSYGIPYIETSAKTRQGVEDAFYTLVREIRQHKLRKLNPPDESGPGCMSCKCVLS

As to `CCC[C@H]1C(=O)N[C@@H]([C@@H](C)CC)C(=O)N(C)CC(=O)N(C)[C@H]2C/C=C\CCN(C2=O)[C@@H](Cc2ccc(C)cc2)C(=O)N(C)CC(=O)N[C@@H](CCc2ccc3sc(C)c(C)c3c2)C(=O)N2C[C@H](OCC)C[C@H]2C(=O)NC2(CC(C)(C)C2)C(=O)N(C)[C@@H](C2CCCC2)C(=O)N(C)[C@H](C(=O)N(C)C)CC(=O)N1C` [PP2891], the “HRAS/KRAS (ratio of KD value with respect to GDP-bound HRAS wild-type protein to KD value with respect to KRAS)” value in assay [1] was “B (a compound having 3 or more and less than 10 is denoted as B)”. In addition, in assay [2], the “NRAS/KRAS (ratio of KD value with respect to GDP-bound NRAS wild-type protein to KD value with respect to KRAS)” value was “A (a compound having 10 or more and less than 20 is denoted as A)”.

`CCC[C@H]1C(=O)N[C@@H]([C@@H](C)CC)C(=O)N(C)CC(=O)N(C)[C@H]2C/C=C\CCN(C2=O)[C@@H](Cc2ccc(C(F)(F)F)cc2)C(=O)N(C)CC(=O)N[C@@H](CCc2ccc3c(C)c(C)n(C)c3c2)C(=O)N2C[C@H](OCC)C[C@H]2C(=O)NC2(CC(C)(C)C2)C(=O)N(C)[C@@H](C(CC)CC)C(=O)N(C)[C@H](C(=O)N(C)C)CC(=O)N1C` [PP2904]: the “HRAS/KRAS (ratio of KD value with respect to GDP-bound HRAS wild-type protein to KD value with respect to KRAS)” value in assay [1] was “A (a compound having 10 or more and less than 20 is denoted as A)”. Also, the “NRAS/KRAS (ratio of KD value with respect to GDP-bound NRAS wild-type protein to KD value with respect to KRAS)” value in assay [2] is listed as “AA (a compound having 20 or more is denoted as AA)”.

`CCO[C@@H]1C[C@H]2C(=O)NC3(CC(C)(C)C3)C(=O)N(C)[C@@H](C(CC)CC)C(=O)N(C)[C@H](C(=O)N(C)C)CC(=O)N(C)[C@@H](CC3CC3)C(=O)N[C@@H]([C@@H](C)CC)C(=O)N(C)CC(=O)N(C)[C@H]3C/C=C\CCN(C3=O)[C@@H](Cc3ccc(C)cc3)C(=O)N(C)CC(=O)N[C@@H](CCc3ccc(C(F)(F)F)c(Cl)c3)C(=O)N2C1` [PP2142]: in assay [1], the “HRAS/KRAS (ratio of KD value for HRAS to KD value for KRAS)” value is “A (a compound having 10 or more and less than 20 is denoted as A)”. The “NRAS/KRAS (ratio of KD value for NRAS to KD value for KRAS)” value in assay [2] is reported as “AA (a compound having 20 or more is denoted as AA)”.

Take `CCC[C@H]1C(=O)N[C@@H](C2CCCC2)C(=O)N(C)CC(=O)N(C)[C@H]2C/C=C\CCN(C2=O)[C@@H](Cc2ccc(C)cc2)C(=O)N(C)CC(=O)N[C@@H](CCc2ccc(C(F)(F)F)c(Cl)c2)C(=O)N2C[C@H](OCC)C[C@H]2C(=O)NC2(CC(C)(C)C2)C(=O)N(C)[C@@H](CC(F)(F)F)C(=O)N(C)[C@H](C(=O)N(C)C)CC(=O)N1C` [PP2192]: the “HRAS/KRAS (ratio of KD value for HRAS to KD value for KRAS)” value in assay [1] was “A (a compound having 10 or more and less than 20 is denoted as A)”. Moreover, in assay [2], the “NRAS/KRAS (ratio of KD value for NRAS to KD value for KRAS)” value is “A (a compound having 10 or more and less than 20 is denoted as A)”.

Turning to `CCC[C@H]1C(=O)N[C@@H]([C@@H](C)CC)C(=O)N(C2CC2)CC(=O)N(C)[C@H]2C/C=C\CCN(C2=O)[C@@H](Cc2ccc(C)cc2)C(=O)N(C)CC(=O)N[C@@H](CCc2cc(F)c(CC)c(OC)c2)C(=O)N2C[C@H](OCC)C[C@H]2C(=O)NC2(CC(C)(C)C2)C(=O)N(C)[C@@H](C2CCCC2)C(=O)N(C)[C@H](C(=O)N(C)C)CC(=O)N1C` [PP2872], the “HRAS/KRAS (ratio of KD value with respect to GDP-bound HRAS wild-type protein to KD value with respect to KRAS)” value in assay [1] was “A (a compound having 10 or more and less than 20 is denoted as A)”. The “NRAS/KRAS (ratio of KD value with respect to GDP-bound NRAS wild-type protein to KD value with respect to KRAS)” value in assay [2] was “A (a compound having 10 or more and less than 20 is denoted as A)”.

Turning to `CCC[C@H]1C(=O)N[C@@H]([C@@H](C)CC)C(=O)N(C2CC2)CC(=O)N(C)[C@H]2C/C=C\CCN(C2=O)[C@@H](Cc2ccc(C)cc2)C(=O)N(C)CC(=O)N[C@@H](CCc2cc(F)c3c(c2)OCC3)C(=O)N2C[C@H](OCC)C[C@H]2C(=O)NC2(CC(C)(C)C2)C(=O)N(C)[C@@H](C2CCCC2)C(=O)N(C)[C@H](C(=O)N(C)C)CC(=O)N1C` [PP2880], in assay [1], the “HRAS/KRAS (ratio of KD value with respect to GDP-bound HRAS wild-type protein to KD value with respect to KRAS)” value was “A (a compound having 10 or more and less than 20 is denoted as A)”. Besides, the “NRAS/KRAS (ratio of KD value with respect to GDP-bound NRAS wild-type protein to KD value with respect to KRAS)” value in assay [2] was “A (a compound having 10 or more and less than 20 is denoted as A)”.

Consider `CC[C@H](C)[C@@H]1NC(=O)[C@H](CC(C)C)N(C)C(=O)C[C@@H](C(=O)N2CCOCC2)N(C)C(=O)[C@H](C2CCCC2)N(C)C(=O)C2(CCCC2)NC(=O)[C@@H]2C[C@@H](OC3CCCCO3)CN2C(=O)[C@H](CCc2ccc(C(F)(F)F)c(Cl)c2)NC(=O)CN(C)C(=O)[C@H](Cc2ccc(C)cc2)N(CC)C(=O)[C@@H]2CCN2C(=O)[C@H](C)N(C)C1=O` (stereo partly shown) [PP0067] ([NMeL]I[NMeA][Aze][NEtPhe(4-Me)][Sar][hPhe(3-Cl-4-CF3)][Hyp](X51)[Ac5c][NMeGly(cPent)][NMeD]-Morpholide; lactam N-11), for which, in assay [1], the “HRAS/KRAS (ratio of KD value for HRAS to KD value for KRAS)” value was “C (A compound having a KD ratio of 0.1 or more and less than 3 is denoted as C)”. Also, the “NRAS/KRAS (ratio of KD value for NRAS to KD value for KRAS)” value in assay [2] is “C (A compound having a KD ratio of 0.1 or more and less than 3 is denoted as C)”.

`CCO[C@@H]1C[C@H]2C(=O)NC3(CCC3)C(=O)N(C)[C@@H](C3CCCC3)C(=O)N(C)[C@H](C(=O)N(C)C)CC(=O)N(C)[C@@H](CC(C)C)C(=O)N[C@@H]([C@@H](C)CC)C(=O)N(C)CC(=O)N(C)[C@H]3C[C@@H](C)CCN(C3=O)[C@@H](Cc3ccc(C(F)(F)F)cc3)C(=O)N(C)CC(=O)N[C@@H](CCc3cc(F)c(C(F)(F)F)c(F)c3)C(=O)N2C1` [PP1018]: the “HRAS/KRAS (ratio of KD value for HRAS to KD value for KRAS)” value in assay [1] was “B (a compound having 3 or more and less than 10 is denoted as B)”. Besides, in assay [2], the “NRAS/KRAS (ratio of KD value for NRAS to KD value for KRAS)” value was “C (A compound having a KD ratio of 0.1 or more and less than 3 is denoted as C)”.

In the case of `C#CC[C@H]1C(=O)N[C@@H]([C@@H](C)CC)C(=O)N(C)CC(=O)N(C)[C@H]2C/C=C\CCN(C2=O)[C@@H](Cc2ccc(C)cc2)C(=O)N(C)CC(=O)N[C@@H](CCc2cc(F)c(C(F)(F)F)c(F)c2)C(=O)N2CC3(CC3)C[C@H]2C(=O)NC2(CC(C)(C)C2)C(=O)N(C)[C@@H](C2CCCC2)C(=O)N(C)[C@H](C(=O)N(C)C)CC(=O)N1C` [PP2978], the “HRAS/KRAS (ratio of KD value for HRAS to KD value for KRAS)” value in assay [1] was “A (a compound having 10 or more and less than 20 is denoted as A)”. The “NRAS/KRAS (ratio of KD value for NRAS to KD value for KRAS)” value in assay [2] is “A (a compound having 10 or more and less than 20 is denoted as A)”.

As to `CCC[C@H]1C(=O)N[C@@H]([C@@H](C)CC)C(=O)N(C2CC2)CC(=O)N(C)[C@H]2C/C=C\CCN(C2=O)[C@@H](Cc2ccc(C)cc2)C(=O)N(C)CC(=O)N[C@@H](CCc2ccc(C(F)(F)F)c(CC)c2)C(=O)N2C[C@H](OCC)C[C@H]2C(=O)NC2(CC(C)(C)C2)C(=O)N(C)[C@@H](C2CCCC2)C(=O)N(C)[C@H](C(=O)N(C)C)CC(=O)N1C` [PP2870], the “HRAS/KRAS (ratio of KD value with respect to GDP-bound HRAS wild-type protein to KD value with respect to KRAS)” value in assay [1] is “A (a compound having 10 or more and less than 20 is denoted as A)”. For the same compound, the “NRAS/KRAS (ratio of KD value with respect to GDP-bound NRAS wild-type protein to KD value with respect to KRAS)” value in assay [2] was “A (a compound having 10 or more and less than 20 is denoted as A)”.

As for `CC[C@H](C)[C@@H]1NC(=O)[C@H](COC)N(C)C(=O)C[C@@H](C(=O)N2CCOCC2)N(C)C(=O)[C@H](C2CCCC2)N(C)C(=O)C2(CCC2)NC(=O)[C@@H]2CC(F)(F)CN2C(=O)[C@H](CCc2cc(F)c(C(F)(F)F)c(F)c2)NC(=O)CN(C)C(=O)[C@H](Cc2ccc(C(F)(F)F)cc2)N2CCCCC[C@@H](C2=O)N(C)C(=O)CN(C)C1=O` [PP0834], the “HRAS/KRAS (ratio of KD value for HRAS to KD value for KRAS)” value in assay [1] is “B (a compound having 3 or more and less than 10 is denoted as B)”. Besides, the “NRAS/KRAS (ratio of KD value for NRAS to KD value for KRAS)” value in assay [2] was “A (a compound having 10 or more and less than 20 is denoted as A)”.

For the origin of these results see patent publication US20240158446A1, “CYCLIC COMPOUND HAVING SELECTIVE INHIBITORY ACTION ON KRAS OVER HRAS AND NRAS” (CHUGAI SEIYAKU KABUSHIKI KAISHA, priority 2021, published 2024).
